Measurements as given in ChEMBL document CHEMBL1131952, “Synthesis of tetrasubstituted bicyclo[3.2.1]octenes as potential inhibitors of influenza virus sialidase” (Bioorg Med Chem Lett, 1999).

Experiments:
Influenza A virus = experiment: Inhibitory activity against sialidase of influenza A; format: functional, organism-based
Influenza B virus = experiment: Inhibitory activity against sialidase of influenza B; format: functional, organism-based

| SMILES | IC50 (Influenza A virus) [µM] | IC50 (Influenza B virus) [µM] |
| --- | --- | --- |
| CCC(CC)O[C@@H]1C=C(C(=O)O)[C@@H]2CC[C@@]1(NC(C)=O)[C@H]2O | 80 | 340 |
| CCC(CC)O[C@@H]1C=C(C(=O)O)[C@@H]2CC[C@@]1(C(=O)O)[C@H]2O | > 670 | > 670 |
| CCC(CC)O[C@@H]1C=C(C(=O)O)[C@@H]2CC[C@@]1(C(=O)OC)[C@H]2O | 99 | 83 |
| CC(=O)N[C@H]1[C@H]([C@H](O)[C@H](O)CO)OC(C(=O)O)=C[C@@H]1O [NEU5AC2EN] | 2.8 | 3 |
